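48-hour exposure; five concentrations; linearly interpolated endpoints. GI50: concentration for 50% inhibition of growth.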 The source made the active and inactive calls. No stated cut-off is given here; in the data, active = GI50 up to about 1.1 µM and inactive = higher.
Columns and labels:
Assay in all cases: NCI tumour cell line growth inhibition, 48 h
[1] = tested on: 786-0
[2] = tested on: ACHN
[3] = tested on: COLO 205
[4] = tested on: DLD-1
[5] = tested on: EKVX
[6] = tested on: IGROV-1
[7] = tested on: KM12
[8] = tested on: NCI-H23
[9] = tested on: OVCAR-4
[10] = tested on: OVCAR-8
[11] = tested on: SF-268
[12] = tested on: SN12C
[13] = tested on: UACC-62
[14] = tested on: UO-31
[15] = tested on: BT-549
[16] = tested on: Hs-578T
[17] = tested on: Malme-3M
[18] = tested on: PC-3
[19] = tested on: RXF 393
[20] = tested on: T47D

Row | Structure (SMILES) | GI50 [1] | GI50 [2] | GI50 [3] | GI50 [4] | GI50 [5] | GI50 [6] | GI50 [7] | GI50 [8] | GI50 [9] | GI50 [10] | GI50 [11] | GI50 [12] | GI50 [13] | GI50 [14] | GI50 [15] | GI50 [16] | GI50 [17] | GI50 [18] | GI50 [19] | GI50 [20]
1 | COC(=O)c1c/c(=N\NC(=O)CC(=O)Nc2ccccc2Cl)c2ccccc2o1 | > 100 µM (inactive) | > 100 µM (inactive) | > 100 µM (inactive) | > 100 µM (inactive) | > 100 µM (inactive) | > 100 µM (inactive) | > 100 µM (inactive) | > 100 µM (inactive) | > 100 µM (inactive) | > 100 µM (inactive) | > 100 µM (inactive) | > 100 µM (inactive) | > 100 µM (inactive) | 91.4 µM (inactive) | – | – | – | – | – | –
2 | NCC(Cc1ccccc1)P(=O)(O)O (stereo not given) | > 100 µM (inactive) | > 100 µM (inactive) | > 100 µM (inactive) | – | > 100 µM (inactive) | > 100 µM (inactive) | > 100 µM (inactive) | > 100 µM (inactive) | > 100 µM (inactive) | > 100 µM (inactive) | > 100 µM (inactive) | > 100 µM (inactive) | > 100 µM (inactive) | > 100 µM (inactive) | > 100 µM (inactive) | > 100 µM (inactive) | > 100 µM (inactive) | > 100 µM (inactive) | > 100 µM (inactive) | > 100 µM (inactive)
3 | Cc1cc(C)c2c(n1)S(=O)(=O)N(CCCN1CCN(c3cccc(Cl)c3)CC1)C(C(=O)c1ccc(Br)cc1)=C2O | 12.1 µM (inactive) | 27.3 µM (inactive) | 15.4 µM (inactive) | – | 19.3 µM (inactive) | 27.2 µM (inactive) | 24.7 µM (inactive) | 33.5 µM (inactive) | 11.4 µM (inactive) | 23.8 µM (inactive) | 24.5 µM (inactive) | 11.1 µM (inactive) | 31.6 µM (inactive) | 7.1 µM (inactive) | 42.3 µM (inactive) | 29.6 µM (inactive) | 24.7 µM (inactive) | 22 µM (inactive) | 23.8 µM (inactive) | 33.4 µM (inactive)
4 | Cc1csc2nc(-c3cc([N+](=O)[O-])c(Cl)cc3Cl)c(/C=N/N=C(N)N)n12 | 19.5 µM (inactive) | 16.6 µM (inactive) | 17.9 µM (inactive) | – | 19.7 µM (inactive) | 16.4 µM (inactive) | 14.4 µM (inactive) | 16.4 µM (inactive) | 16 µM (inactive) | 19.2 µM (inactive) | 16.5 µM (inactive) | 16.2 µM (inactive) | 14.2 µM (inactive) | 16 µM (inactive) | 14.6 µM (inactive) | 15.4 µM (inactive) | 17.8 µM (inactive) | 16.4 µM (inactive) | 15.9 µM (inactive) | 16.9 µM (inactive)
5 | C=C(C)C(CC=C(C)C)Cc1c(O)cc(OC)c2c1OC(c1ccc(O)cc1O)C(O)C2=O (stereo not given) | 16.6 µM (inactive) | 20.4 µM (inactive) | 16.3 µM (inactive) | – | 16.3 µM (inactive) | 14.6 µM (inactive) | 12 µM (inactive) | 17.9 µM (inactive) | 16.3 µM (inactive) | 17 µM (inactive) | 18.6 µM (inactive) | 20.5 µM (inactive) | 16.2 µM (inactive) | 15.9 µM (inactive) | 14.9 µM (inactive) | 17.2 µM (inactive) | 17.7 µM (inactive) | 13.5 µM (inactive) | 19 µM (inactive) | 13.8 µM (inactive)
6 | COc1cc2cc(C(=O)N3CC(CCl)c4c3cc(N)c3ccccc43)[nH]c2cc1OCCN(C)C (stereo not given) | < 0.005 µM (active) | < 0.005 µM (active) | < 0.005 µM (active) | – | 0.00809 µM (active) | < 0.005 µM (active) | < 0.005 µM (active) | < 0.005 µM (active) | 0.00628 µM (active) | < 0.005 µM (active) | < 0.005 µM (active) | 0.00597 µM (active) | < 0.005 µM (active) | < 0.005 µM (active) | 0.051 µM (active) | 0.027 µM (active) | 0.0053 µM (active) | < 0.005 µM (active) | < 0.005 µM (active) | < 0.005 µM (active)
7 | FC(F)(F)c1n[nH]c(SCc2ccc(Cl)cc2)n1 | > 100 µM (inactive) | > 100 µM (inactive) | > 100 µM (inactive) | – | > 100 µM (inactive) | > 100 µM (inactive) | > 100 µM (inactive) | > 100 µM (inactive) | > 100 µM (inactive) | > 100 µM (inactive) | > 100 µM (inactive) | > 100 µM (inactive) | > 100 µM (inactive) | 59.4 µM (inactive) | > 100 µM (inactive) | 94.8 µM (inactive) | > 100 µM (inactive) | > 100 µM (inactive) | > 100 µM (inactive) | > 100 µM (inactive)
8 | NC(=O)C1=CC2C3C=CC2(O)C(=O)OC3O1 (stereo not given) | 3.63 µM (inactive) | 3.44 µM (inactive) | 3.71 µM (inactive) | – | 3.44 µM (inactive) | 2.92 µM (inactive) | 2.94 µM (inactive) | 2.91 µM (inactive) | 4.33 µM (inactive) | 2.46 µM (inactive) | 3.73 µM (inactive) | 4.28 µM (inactive) | 2.71 µM (inactive) | 3.67 µM (inactive) | 4.06 µM (inactive) | 1.81 µM (inactive) | 1.82 µM (inactive) | 3.57 µM (inactive) | 2.52 µM (inactive) | 3.36 µM (inactive)
9 | COC(=O)c1cc2c3c(cc(NCCN)c2[nH]1)N(C(=O)c1cc2cc(OC)c(OC)c(OC)c2[nH]1)CC3CCl (stereo not given) | 0.0423 µM (active) | 0.0889 µM (active) | 0.0559 µM (active) | – | 0.158 µM (active) | 0.012 µM (active) | 0.205 µM (active) | 0.0659 µM (active) | 0.0925 µM (active) | 0.109 µM (active) | 0.0213 µM (active) | 0.0982 µM (active) | 0.0594 µM (active) | 0.192 µM (active) | 0.229 µM (active) | 0.049 µM (active) | 0.0377 µM (active) | 0.0269 µM (active) | 0.0301 µM (active) | 0.031 µM (active)
10 | C=Cc1nc2c(Cl)ncnc2n1Cc1ccccc1 | 1.6 µM (inactive) | 1.86 µM (inactive) | 1.53 µM (inactive) | – | 4.7 µM (inactive) | 3.08 µM (inactive) | 2.84 µM (inactive) | 3.52 µM (inactive) | 2.76 µM (inactive) | 3.2 µM (inactive) | 6.35 µM (inactive) | 6.43 µM (inactive) | 6.68 µM (inactive) | 2.51 µM (inactive) | 4.71 µM (inactive) | 13.2 µM (inactive) | 4.03 µM (inactive) | 3.52 µM (inactive) | 2.69 µM (inactive) | 2.59 µM (inactive)
11 | CCCCc1ccc(Nc2nc3c(ncn3C3CC(O)C(CN=[N+]=[N-])O3)c(=O)[nH]2)cc1 (stereo not given) | > 100 µM (inactive) | > 100 µM (inactive) | > 100 µM (inactive) | – | > 100 µM (inactive) | > 100 µM (inactive) | > 100 µM (inactive) | > 100 µM (inactive) | > 100 µM (inactive) | > 100 µM (inactive) | > 100 µM (inactive) | > 100 µM (inactive) | > 100 µM (inactive) | > 100 µM (inactive) | > 100 µM (inactive) | > 100 µM (inactive) | > 100 µM (inactive) | > 100 µM (inactive) | > 100 µM (inactive) | 54.7 µM (inactive)
12 | COc1cc(CNc2c3ccccc3nc3ccccc23)cc(OC)c1OC | 2.6 µM (inactive) | 3.07 µM (inactive) | 1.69 µM (inactive) | – | 5.78 µM (inactive) | 3.81 µM (inactive) | 6.21 µM (inactive) | 3.46 µM (inactive) | 2.1 µM (inactive) | 3.79 µM (inactive) | 4.07 µM (inactive) | 2.88 µM (inactive) | 2.43 µM (inactive) | 3.05 µM (inactive) | 3.87 µM (inactive) | 3.64 µM (inactive) | 3.71 µM (inactive) | 3.23 µM (inactive) | 2.86 µM (inactive) | 6.38 µM (inactive)
13 | Clc1ccc(CSCc2ccc(Cl)cc2Cl)c(Cl)c1 | 60.8 µM (inactive) | > 100 µM (inactive) | 65.8 µM (inactive) | – | 57.5 µM (inactive) | 41.8 µM (inactive) | 40.2 µM (inactive) | 78.5 µM (inactive) | 36.4 µM (inactive) | > 100 µM (inactive) | 71 µM (inactive) | > 100 µM (inactive) | 50 µM (inactive) | > 100 µM (inactive) | 97.5 µM (inactive) | 79.4 µM (inactive) | 28.2 µM (inactive) | 44.1 µM (inactive) | 20 µM (inactive) | 22.5 µM (inactive)
14 | C(=C\c1ccccc1)/C=N/c1nc2cc3sc(/N=C/C=C/c4ccccc4)nc3cc2s1 | > 100 µM (inactive) | > 55.8 µM (inactive) | 1.06 µM (active) | – | 73.1 µM (inactive) | > 63.2 µM (inactive) | 76.2 µM (inactive) | 42.2 µM (inactive) | > 100 µM (inactive) | > 92.3 µM (inactive) | > 63.4 µM (inactive) | 69.2 µM (inactive) | 99.8 µM (inactive) | 34.4 µM (inactive) | > 96.2 µM (inactive) | > 100 µM (inactive) | > 100 µM (inactive) | > 79.8 µM (inactive) | > 100 µM (inactive) | 47 µM (inactive)
15 | CCC(=O)C(CCN1CCC2(CCCc3ccccc32)CC1)(c1ccccc1)c1ccccc1 | 2.12 µM (inactive) | 2.85 µM (inactive) | 1.34 µM (inactive) | – | 4 µM (inactive) | 2.77 µM (inactive) | 1.79 µM (inactive) | 2.15 µM (inactive) | 3.52 µM (inactive) | 3.66 µM (inactive) | 5.92 µM (inactive) | 2.29 µM (inactive) | 3.72 µM (inactive) | 2.39 µM (inactive) | 0.685 µM (active) | 2.33 µM (inactive) | 1.91 µM (inactive) | 2.45 µM (inactive) | 2 µM (inactive) | 3.29 µM (inactive)
